Assays:
Control BV2 cells = test: TNF-α production after antioxidant treatment, Control BV2 microglia (Meso-Scale Discovery immunoassay); format: cell-based, mouse; conditions: 5 mM, 18 hours
Description: (§1) BV2 cells are a type of microglial cell line that was originally derived from a C57/B16 mouse. BV2 cells were immortalized by v-raf/v-myc J2 retrovirus.
(§2) The role of RGS10 in regulating a response to inflammatory and metabolic stresses was assessed in microglia cells. BV2 cells were grown in culture and RGS10 expression in BV2 cells was diminished by CRISPR/Cas9 RGS10 knockout methods. Control cells were obtained from CRISPR/Cas9 controls.
(§3) Control and RGS10 KD BV2 cells were allocated into 2 test conditions. The 2 test conditions were 1) Control (no treatment) 2) N-acetylcysteine (NAC) treatment (5 mM). NAC is an antioxidant precursor. NAC is a precursor of L-cysteine that results in biosynthesis of glutathione. Glutathione is a powerful, naturally occurring antioxidant. NAC also acts directly as a scavenger of free radicals, especially oxygen radicals, illustrating extensive antioxidant properties of NAC treatment. NAC treatment in cells leads to a reduction in reactive oxidative species (ROS).
(§4) Cultured cells were subjected to test conditions for 18 hours and then assayed for production of TNF-α using an immunoassay (Meso-Scale Discovery). Values for TNF-α production in Control and RGS10 KD BV2 cells under Condition 1) were scaled to value of 1.0. Values for TNF-α production after NAC treatment were represented as a % of change relative to Condition 1) levels and were graphed in FIG. 3.

RGS10 KD BV2 cells = test: TNF-α production after antioxidant treatment, RGS10 KD BV2 microglia (Meso-Scale Discovery immunoassay); format: cell-based, mouse; conditions: 5 mM, 18 hours
Description: as §1, §2, §3, §4

**Q.** For `CC(=O)N[C@@H](CS)C(=O)O` [NAC, N-acetylcysteine], which “TNF-α production after treatment vs no treatment” value (Control BV2 cells) is on record?
**A.** statistically significant reduction in level of TNF-α production

**Q.** And the “TNF-α production after treatment vs no treatment” value (RGS10 KD BV2 cells)?
**A.** statistically significant reduction in level of TNF-α production

— US20260007774A1, “AAV-MEDIATED DELIVERY OF RGS10 TO MICROGLIA” (NEURONITY THERAPEUTICS, INC., priority 2022, published 2026)
